Source: paper PMC7108740, “Exploring the molecular structures that confer ligand selectivity for galanin type II and III receptors” (PLoS ONE, 2020)

Molecular target: T1, GALR3 septuple (Homo sapiens, UniProt O60755, A190V/A191F/C272L/G192S/L100F/Y103F/Y107H)
T1 construct: expressed in transfected cells; host or cells: HEK293 cells stably expressing pGlosensor-22F cAMP plasmid
T1 sequence (O60755 1-368 L100F/Y103F/Y107H/A190V/A191F/G192S/C272L): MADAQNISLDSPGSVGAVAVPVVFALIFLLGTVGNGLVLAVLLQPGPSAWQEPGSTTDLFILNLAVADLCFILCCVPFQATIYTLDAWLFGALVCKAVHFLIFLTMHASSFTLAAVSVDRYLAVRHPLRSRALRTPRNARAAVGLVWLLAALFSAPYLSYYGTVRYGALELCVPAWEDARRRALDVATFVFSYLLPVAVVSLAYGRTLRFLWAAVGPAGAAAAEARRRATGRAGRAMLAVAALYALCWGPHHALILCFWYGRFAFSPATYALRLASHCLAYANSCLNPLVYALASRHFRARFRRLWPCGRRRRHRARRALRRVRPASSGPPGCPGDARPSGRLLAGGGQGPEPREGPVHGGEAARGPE
Experiment: SRE-luc luciferase assay, GALR3 septuple mutant
Assay type: cell-based
Details: SRE-luc in HEK293 Gqi cells, ligand 6 h, mean ± SE, SEM
Source text: For domain swapping between GALR2 and GALR3, individual cDNA fragments of interest were amplified by polymerase chain reaction (PCR) with Pfu polymerase (ELPIS Biotech, Daejeon, Korea) and two specific primers, one corresponding to the 5' or 3' end of the GALR2 or GALR3 cDNA and the other to the region of overlap between the two receptors. The two resulting fragments, one from GALR2 and the other from GALR3, were subjected to a second round of PCR to generate the chimeric cDNAs. To construct single, double-, triple-, pentuple-, hextuple-, and septuple-mutant receptors, amino acids of GALR3 were substituted for the amino acids at the corresponding positions in GALR2 using PCR-based site-directed mutagenesis. […]
For luciferase assays, HEK293 Gqi cells were seeded on 48-well plates at a density of 2.5 × 10^4 cells/well one day before transfection. […] The luciferase activity in 50 μl cell extract was determined using a luciferase assay system according to the standard protocol for the Synergy 2 Multi-Mode Microplate Reader (BioTek, Winooski, VT, USA).
Data analysis was performed by non-linear regression with a sigmoidal dose-response curve. The concentrations of agonists that induced half-maximal stimulation (EC50) were calculated using the GraphPad PRISM5 software (GraphPad software, Inc., San Diego, CA). […]

EC50: 4.07 ± 1.12 nM
SMILES: CSCC[C@H](NC(=O)[C@H](C)NC(=O)[C@H](CCC(N)=O)NC(=O)[C@@H]1CCCN1C(=O)[C@@H](NC(=O)[C@H](Cc1c[nH]c2ccccc12)NC(=O)[C@@H](N)CC(N)=O)[C@@H](C)O)C(=O)N[C@@H](CC(C)C)C(=O)N[C@@H](Cc1ccc(O)cc1)C(=O)N[C@@H](CC(C)C)C(=O)N[C@@H](CCCCN)C(=O)NCC(=O)N[C@@H](C)C(=O)N[C@@H](CCC(N)=O)C(N)=O [SPX, reference compound]
